The values below are quoted from earlier work in EP3728136B1 (Easymining Sweden AB, priority 2017, dated 2019).

This data set relates to biogas-producing bacteria. The note with it: concentration of free ammonia increased to 620 mg/l; Siles et al., 2010.

Consider `N` [ammonia], for which the “gradual decrease of biogas production” value is listed as 21%.
